From US20040167226A1, “Methods for the treatment of pain and traumatic injury using benzamides and compositions containing the same” (priority 2002, published 2004)
“Also recorded” adds a separate entry of the source.

What was measured:
[1] = test system: Taxol-induced mechanical allodynia; assay: Taxol-induced neuropathic pain mouse model, von Frey filament paw withdrawal; assay type: in vivo, C57B16 mice; details: mice
Method: C57B16 male mice were preconditioned (trained) in the enclosure one hour per day in the morning for one week prior to the baseline measurement. The baseline response to the mechanical stimulus was measured using a von Frey filament with 0.6 gram of force (von Frey number 3.84). Briefly, the von Frey filament, was applied to the plantar area of the right hind paw of mouse. The frequency of paw withdrawal was calculated in terms of percentage response, where the higher percentage indicates more pain, whereas the lower the percentage indicates less pain. Based on past experience with the C57B16 strain of adult male mice, animals with baseline no greater than 40% of response were included in further studies, while those with greater than 40% of paw withdrawal response to this particular force of stimulus, known as spontaneous mechanical allodynia, were discarded from these studies. The paw withdrawal behavior includes, licking the stimulated paw, vigorously shaking the paw and active avoidance upon application of innocuous mechanical stimuli. For those mice without spontaneous mechanical allodynia, Taxol was administered to the mice daily, 5 days a week, for longer than a one week period. Generally, mice treated with daily i.p. administration of 1 mg/kg (body weight) of Taxol develop relatively stable mechanical allodynia, neuropathic pain, on day 9 and thereafter. Prior to compound A administration, the responses of mice to 0.6 gram of von Frey filament were measured for two consecutive days in the morning. Only those mice with paw withdrawal response to this particular von Frey filament stimulus no less than 60%, counted as mechanical allodynia, were included for later testing with the compounds of interest.
Five-week old, male C57B1/6 mice were purchased from Charles River and housed at the Renovis animal facility in South San Francisco. Mice were trained for one week in an enclosure made of Plexiglas with dimensions of 2 in×2.5 in×3.5 in (W, H, and L) with a meshed metal support. The baseline of response to mechanical stimulus was measured using a von Frey Filament (0.6 g=3.84 mN). Normally, the baseline response is between 0 to 40%.
Taxol was dissolved (1 mg/ml) in 50% Cremophor EL and 50% alcohol, and freshly diluted with saline to the final concentration of 0.2 mg/ml in 10% Cremophor EL, 10% alcohol. Mice were administered Taxol at 1 mg/kg of body weight, via ip daily, while the animals of the control group received vehicle (10% Cremophor EL and 10% alcohol in saline).
Five-week old C57B1/6 male mice were trained for one week in the von Frey filament test, and baseline response (percent paw withdrawal over 40 tests) to a von Frey filament (0.6 gram=3.84 mN) was measured (average shown in the graph as “baseline (mean)”=31%).
Trained mice were treated with 1 mg/kg (body weight) taxol in 10% Cremophor EL/10% ethanol via ip injection daily through the end of the experiment in order to induce the neuropathic pain state.
The percent pain response (percent paw withdrawal over 40 tests) with a von Frey filament (0.6 gram=3.84 mN) was measured at day 8 and day 9 after pain induction (average of these two shown in the graph as “pre-dosing (mean)”=75%). Those animals with either sensitive baseline (>40% response) or without pain (<60% response) after 9 days of taxol injection were not included in the data analysis. Animals receiving this daily dose of Taxol will develop neuropathic pain.
[…] The animals were then placed in the enclosure for assay. Mechanical allodynia was measured with von Frey filament (0.6 g=3.84 mN) at various times after administration.
Nine taxol-treated animals received […] vehicle (75% polyethylene glycol (PEG)) via ip injection; 8 taxol-treated animals were injected ip with a suspension of Compound A in vehicle at dose of 50 mg/kg (body weight). […]

[2] = Brain-blood distribution of Compound A in the rat; assay type: in vivo; details: brain / whole blood, single po dose 30 mg/kg, n = 5, read-out: Brain/Blood Ratio (Mean ± SD)
Method: Blood-brain distribution of Compound A was assessed in the mouse, rat, and squirrel monkey by determining the concentrations of Compound A in blood and brain tissue at specific times post dose. Rats and mice received a single po dose of 30 mg/kg. The monkeys received a twice-daily 10 mg/kg po dose of Compound A for a total of 5 weeks prior to sacrifice. Brain to blood ratios for Compound A, as shown below in Table 4, show high penetration of the blood-brain barrier.

[3] = PK parameter estimates, 30 mg/kg po in 1% methyl cellulose; assay type: in vivo, rats
Excerpt: The time course of plasma concentration of compound N is depicted in FIG. 1 as well.

iNOS = assay: Immunohistochemistry for inflammatory marker iNOS on contused spinal cord; assay type: in vivo; details: rats after contusion injury; 72 h post-injury, 1 mm caudal to epicenter
Method: Compound A was tested in both the rat dorsal hemisection (Guth, L. et al. (1980), J. Neurosurgery 52: 73-86) and contusion models (Scheff, S. W. (2003), J. Neurotrauma 20: 179-193) for evaluation of efficacy. These models are widely used in the field of spinal cord injury and replicate many of the pathological aspects found in humans who have sustained a spinal cord injury. Rats were subjected to an experimental spinal cord injury at T8, and were given Compound A shortly thereafter. Behavioral tests to assess the locomotion deficits were performed after the lesion. At the end of the experiment, animals were sacrificed and the spinal cord was collected for histopathological analysis. […] Histological assessment of the tissue at the site of injury was also made in both the drug treated and untreated group. In particular, subsequent to the behavioral measurement, spinal cord tissue from each animal was obtained and serial transverse tissue sections were stained with either anti-neurofilament antibody or antibodies specific for the inflammatory markers, tumor necrosis factor alpha (TNFα) and for the inducible form of nitric oxide synthetase (iNOS), followed by incubation with Alexa Fluor®-conjugated secondary antibodies.
Histological assessment of the tissue at the site of injury was also made in both the drug treated and untreated group. […]

[4] = rat, plasma, rats, 30 mg/kg po in 1% methyl cellulose, n = 3

SMILES: CC(=O)Nc1ccc(C(=O)NC(C)(C)C)cc1 [Compound A, N-tert-butyl-4-acetamidobenzamide]
- mechanical allodynia under chronic dosing vs vehicle control ([1]; 5 mg/kg/per day and 10 mg/kg/per day i.p., one dose per day, Cremophor EL/ETOH/saline): less mechanical allodynia
- percentage response to 0.6 gram von Frey filament ([1]; 10 mg/kg i.p. in Cremophor EL/ETOH/saline, 3-hour postdosing, +/-SEM): 40+/−10.9%
- percentage response to 0.6 gram von Frey filament ([1]; 10 mg/kg i.p. in Cremophor EL/ETOH/saline, 6-hour postdosing, +/-SEM): 42+/−95%
- pain under chronic dosing ([1]; 10 mg/kg/per day i.p., Cremophor EL/ETOH/saline): much less pain
- percentage response to 0.6 gram von Frey filament ([1]; 20 mg/kg i.p. in Cremophor EL/ETOH/saline, 3-hours postdosing, not statistically significant (p 0.08)): 59+/−8.1%
- analgesic effect on Taxol-induced pain (in words) ([1]; 50 mg/kg i.p. single dose in 75% PEG-200, 50 mg/kg): has activity preventing Taxol-induced pain; also recorded: strong analgesic effect
- percentage of paw withdraw response to 0.6 gram von Frey filament ([1]; 50 mg/kg i.p. single dose in 75% PEG-200, 1-hour postdosing, +/-SEM): 20+/−7.6%
- percentage of paw withdraw response to 0.6 gram von Frey filament ([1]; 50 mg/kg i.p. single dose in 75% PEG-200, 2-hour postdosing (so in the source), +/-SEM): 32.5+/−13.1%
- percentage of paw withdraw response to 0.6 gram von Frey filament ([1]; 50 mg/kg i.p. single dose in 75% PEG-200, 24-hour postdosing, +/-SEM): 50+/−9.3%
- percentage of paw withdraw response to 0.6 gram von Frey filament ([1]; 50 mg/kg i.p. single dose in 75% PEG-200, 48-hour postdosing, +/-SEM): 65+/−6.3%
- time of peak analgesic efficacy post dosing ([1]; 5 and 10 mg/kg i.p. in Cremophor EL/ETOH/saline): 3 h
- drug tolerance or drug accumulation under chronic dosing ([1]; 5 and 10 mg/kg/per day i.p. chronic dosing): no significant drug tolerance or drug accumulation effects
- Kp at 0.5 h ([2]; 0.5 h post-dose): 0.71 ± 0.03
- Kp at 1 h ([2]; 1.0 h post-dose): 0.66 ± 0.02
- Kp at 2 h ([2]; 2.0 h post-dose): 0.67 ± 0.03
- bioavailability (in words) ([3]; additional series of bioavailability experiments): excellent bioavailability
- AUC(0-inf) [3, 4]: 745 µg·h/mL
- Cmax [3, 4]: 34000 ng/mL
- Tmax [3, 4]: 8 h
- half-life ([3]; rat, plasma, rats, 30 mg/kg po in 1% methyl cellulose, n = 3, read-out: Elim.t1/2 (converted)): 11 h
- inflammatory marker iNOS in the region of the corticospinal tract vs untreated control (iNOS): decreased
